Publication PMC8569887 (Journal of medicinal chemistry, 2021)
Entries after “also recorded” stand apart in the source; their conditions may differ.

Columns and labels:
[1] = tested on: primary rat cortical neurons (axonal AcTub staining); assay type: cell-based; settings: 1 μM compound; for AcTub staining and axonal processes upon co-addition with okadaic acid: +OA (15 nM, 8 hours); for axonal acetyl-tubulin staining in the absence of OA: relative to vehicle
HeLa cells = assay: Cytotoxicity in rapidly dividing HeLa cells; assay type: cell-based; settings: values in Supporting Information
QBI293 cells = assay: Cytotoxicity in rapidly dividing QBI293 cells; assay type: cell-based; settings: values in Supporting Information
[2] = tested on: primary mouse cortical neurons (AcTub levels); assay: AcTub ELISA in primary mouse cortical neurons treated with okadaic acid; assay type: cell-based; settings: 10 μM (higher concentration)
[3] = Brain and plasma pharmacokinetics after i.p. dosing; assay type: in vivo; settings: CD1 mice

## CC(C)[C@@H](C)Nc1c(-c2c(F)cc(F)cc2F)c(Cl)nc2ncnn12 [Compound 3, reference compound]
[1]
  AcTub staining and axonal processes upon co-addition with okadaic acid: normalization of AcTub staining and axonal processes
  axonal acetyl-tubulin staining in the absence of OA: increased axonal acetyl-tubulin staining

## CC(C)[C@@H](Nc1c(-c2c(F)cc(F)cc2F)c(Cl)nc2ncnn12)C(F)(F)F [Compound 46, (R)-5-Chloro-N-(1,1,1-trifluoro-3-methylbutan-2-yl)-6-(2,4,6-trifluorophenyl)-[1,2,4]triazolo[1,5-a]pyrimidin-7-amine]
HeLa cells
  cytotoxicity IC50, side-by-side comparison of enantiomers: did not reveal significant differences in IC50 values
QBI293 cells
  cytotoxicity IC50, side-by-side comparison of enantiomers: did not reveal significant differences in IC50 values

## CC(C)[C@H](Nc1c(-c2c(F)cc(F)cc2F)c(Cl)nc2ncnn12)C(F)(F)F [Compound 47, (S)-5-Chloro-N-(1,1,1-trifluoro-3-methylbutan-2-yl)-6-(2,4,6-trifluorophenyl)-[1,2,4]triazolo[1,5-a]pyrimidin-7-amine]
HeLa cells
  cytotoxicity IC50, side-by-side comparison of enantiomers: did not reveal significant differences in IC50 values
QBI293 cells
  cytotoxicity IC50, side-by-side comparison of enantiomers: did not reveal significant differences in IC50 values

## C[C@@H](Nc1c(-c2c(F)cc(C#N)cc2F)c(Cl)nc2ncnn12)C(C)(C)C [Compound 69, (R)-4-(5-Chloro-7-((3,3-dimethylbutan-2-yl)amino)-[1,2,4]triazolo[1,5-a]pyrimidin-6-yl)-3,5-difluorobenzonitrile]
[1]
  AcTub staining and axonal processes upon co-addition with okadaic acid: protects the MT network from okadaic acid-induced collapse; also recorded: normalization of AcTub staining and axonal processes
  axonal acetyl-tubulin staining in the absence of OA: increased axonal acetyl-tubulin staining
[2]
  AcTub levels in neuron homogenates in the presence of OA: AcTub levels comparable to those in neurons without OA treatment
[3]; i.p. dosing, compared to 3
  metabolic stability from plasma PK compared with lead compound 3: greater metabolic stability
[3]; i.p. injection
  clearance compared to 3: reduced clearance
  plasma half-life compared to 3: increased plasma half-life
